# Patent publication US20230167073A1 (Teijin Pharma Limited, priority 2020, published 2023)
# Molecular target: T1, Human TRPC6 (Homo sapiens, UniProt Q9Y210)
# T1 construct: expressed in transfected cells
# T1 sequence (Q9Y210 1-931): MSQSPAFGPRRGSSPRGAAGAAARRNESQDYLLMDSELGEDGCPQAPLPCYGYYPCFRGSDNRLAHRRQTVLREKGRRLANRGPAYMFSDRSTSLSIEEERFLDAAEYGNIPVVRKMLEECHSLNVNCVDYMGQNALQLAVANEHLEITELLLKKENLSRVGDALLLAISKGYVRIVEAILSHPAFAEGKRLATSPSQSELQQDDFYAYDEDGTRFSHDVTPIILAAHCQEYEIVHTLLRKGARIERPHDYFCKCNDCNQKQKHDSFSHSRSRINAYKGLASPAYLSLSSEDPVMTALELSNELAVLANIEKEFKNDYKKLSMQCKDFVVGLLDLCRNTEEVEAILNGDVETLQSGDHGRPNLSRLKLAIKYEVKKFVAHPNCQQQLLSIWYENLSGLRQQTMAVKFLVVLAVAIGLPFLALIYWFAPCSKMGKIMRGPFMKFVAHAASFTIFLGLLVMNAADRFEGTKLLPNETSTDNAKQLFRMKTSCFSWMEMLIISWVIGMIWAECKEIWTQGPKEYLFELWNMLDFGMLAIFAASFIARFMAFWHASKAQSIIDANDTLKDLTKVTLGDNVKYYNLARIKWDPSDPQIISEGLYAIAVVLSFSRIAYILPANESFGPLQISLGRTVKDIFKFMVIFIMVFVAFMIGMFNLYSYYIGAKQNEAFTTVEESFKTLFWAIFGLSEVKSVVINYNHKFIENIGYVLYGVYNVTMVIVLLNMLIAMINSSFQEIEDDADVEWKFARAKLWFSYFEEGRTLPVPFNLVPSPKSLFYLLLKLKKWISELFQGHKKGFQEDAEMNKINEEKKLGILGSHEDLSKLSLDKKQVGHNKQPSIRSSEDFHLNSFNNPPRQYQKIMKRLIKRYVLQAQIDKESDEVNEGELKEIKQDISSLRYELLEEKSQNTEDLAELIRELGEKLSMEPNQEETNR
# Test: Evaluation of TRPC6 channel inhibitory activity (1), FLIPR Calcium 5 Assay Kit, OAG stimulation (Compound Nos. 1-1293)
# Type: cell-based
# Conditions: Human TRPC6 stably-expressing cells, OAG 30 μM, FLIPR Calcium 5 Assay Kit; read-out: Inhibitory activity (pIC50 class) (converted)
# Outline: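 Calcium influx read by FLIPR fluorescence in cells stably expressing human TRPC6, dye-loaded 30 min. Compounds preincubated 20 min, then OAG stimulation at 30 μM final. Inhibition fitted by four-parameter logistic regression to give pIC50, reported as +/++/+++ categories.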
row,Structure (SMILES),IC50 [nM]
1,"N#Cc1ccc(-c2ccc(CCN)cc2)c(Oc2cnnc(OC3CCCC3)c2)c1 [Compound 107, 4-[4-(2-aminoethyl)phenyl]-3-(6-cyclopentyloxypyridazin-4-yl)oxybenzonitrile]",10 to 1000
2,"Cc1nc(Oc2cc(C#N)ccc2-c2ncc(CN)cn2)cc(N2CCC[C@H]2C)n1 [compound 794, 4-[5-(aminomethyl)pyrimidin-2-yl]-3-[2-methyl-6-[(2R)-2-methylpyrrolidin-1-yl]pyrimidin-4-yl]oxybenzonitrile]",10 to 1000
3,"Cc1nc(Oc2cc(F)ccc2-c2ncc(CCN)cn2)cc(N2CCOCC2)n1 [compound 965, 2-[2-[4-fluoro-2-(2-methyl-6-morpholin-4-ylpyrimidin-4-yl)oxyphenyl]pyrimidin-5-yl]ethanamine]",10 to 1000
4,"Cc1cc(Oc2nc(C#N)ccc2-c2ncc(CN)cn2)cc(-c2ccccn2)n1 [compound 1286, 5-[5-(aminomethyl)pyrimidin-2-yl]-6-(2-methyl-6-pyridin-2-ylpyridin-4-yl)oxypyridine-2-carbonitrile]",> 1000
5,"Cc1c(CN2CCN[C@@H](C)C2)cc(-c2ccc(C#N)cc2Oc2cc(C3CC3)nn2C)c2nccn12 [compound 497, 3-(5-cyclopropyl-2-methylpyrazol-3-yl)oxy-4-[5-methyl-6-[[(3S)-3-methylpiperazin-1-yl]methyl]imidazo[1,2-a]pyridin-8-yl]benzonitrile]",> 1000
6,"CCC(N)c1cnc(-c2ccc(C#N)cc2Oc2cc(-c3ccccn3)nn2C)nc1 (stereo not shown) [compound 734, 4-[5-(1-aminopropyl)pyrimidin-2-yl]-3-(2-methyl-5-pyridin-2-ylpyrazol-3-yl)oxybenzonitrile]",< 10
7,"Cc1nc(-c2cccc(F)c2)cn1Cc1cc(C#N)ccc1-c1ncc([C@H](O)CN)cn1 [compound 1162, 4-[5-[(1S)-2-amino-1-hydroxyethyl]pyrimidin-2-yl]-3-[[4-(3-fluorophenyl)-2-methylimidazol-1-yl]methyl]benzonitrile]",10 to 1000
8,"Cc1nc(-c2ccc(F)cc2)cn1Cc1cc(C#N)ccc1-c1ccc(CCN)cn1 [compound 1154, 4-[5-(2-aminoethyl)pyridin-2-yl]-3-[[4-(4-fluorophenyl)-2-methylimidazol-1-yl]methyl]benzonitrile]",< 10
9,"Cc1nc(Oc2cc(C#N)ccc2-c2csc(C(O)CN)n2)cc(N2CCOCC2)n1 (stereo not shown) [Compound 168, 4-[2-(2-amino-1-hydroxyethyl)-1,3-thiazol-4-yl]-3-(2-methyl-6-morpholin-4-ylpyrimidin-4-yl)oxybenzonitrile]",10 to 1000
10,"Cc1nc(N2CCOCC2)ccc1Oc1cc(C#N)ccc1-c1ncc(CN)cn1 [compound 922, 4-[5-(aminomethyl)pyrimidin-2-yl]-3-(2-methyl-6-morpholin-4-ylpyridin-3-yl)oxybenzonitrile]",> 1000
11,"Cn1nc(-c2ccc(F)cc2)cc1Oc1cc(C#N)ccc1-c1ccc(CCN)nc1 [Compound 184, 4-[6-(2-aminoethyl)pyridin-3-yl]-3-[5-(4-fluorophenyl)-2-methylpyrazol-3-yl]oxybenzonitrile]",10 to 1000
12,"Cn1nc(C(F)(F)C(F)(F)F)cc1Oc1cc(C#N)ccc1-c1ncc(CCN)cn1 [compound 376, 4-[5-(2-aminoethyl)pyrimidin-2-yl]-3-[2-methyl-5-(1,1,2,2,2-pentafluoroethyl)pyrazol-3-yl]oxybenzonitrile]",< 10
13,"Cn1nc(C2CC2)cc1Oc1cc(F)ccc1-c1ncc(CN)cn1 [compound 1015, [2-[2-(5-cyclopropyl-2-methylpyrazol-3-yl)oxy-4-fluorophenyl]pyrimidin-5-yl]methanamine]",10 to 1000
14,"COCCN(C)c1cc(Oc2cc(C#N)ccc2-c2ccc(CN)cn2)n(C)n1 [compound 799, 4-[5-(aminomethyl)pyridin-2-yl]-3-[5-[2-methoxyethyl(methyl)amino]-2-methylpyrazol-3-yl]oxybenzonitrile]",< 10
15,"Cc1nc(-c2cncc(F)c2)cn1Cc1cc(C#N)ccc1-c1ccc(CCN)cn1 [compound 1193, 4-[5-(2-aminoethyl)pyridin-2-yl]-3-[[4-(5-fluoropyridin-3-yl)-2-methylimidazol-1-yl]methyl]benzonitrile]",10 to 1000
16,"Cc1nc(Nc2cc(C#N)ccc2-c2ccc(C(=O)CN)cc2)cc(N2CCOCC2)n1 [Compound 4, 4-[4-(2-Aminoacetyl)phenyl]-3-[(2-methyl-6-morpholin-4-ylpyrimidin-4-yl)amino]benzonitrile]",> 1000

row,Structure (SMILES),IC50 [nM]
1,"CC(C)Cc1cn(Cc2cc(C#N)ccc2-c2ncc(CCN)cn2)nn1 [compound 1184, 4-[5-(2-aminoethyl)pyrimidin-2-yl]-3-[[4-(2-methylpropyl)triazol-1-yl]methyl]benzonitrile]",< 10
2,"Cc1nc(Oc2cc(C#N)ccc2-c2ncc([C@H](O)CN)cn2)cc(N2C[C@@H](C)O[C@@H](C)C2)n1 [compound 524, 4-[5-[(1S)-2-amino-1-hydroxyethyl]pyrimidin-2-yl]-3-[6-[(2S,6R)-2,6-dimethylmorpholin-4-yl]-2-methylpyrimidin-4-yl]oxybenzonitrile]",10 to 1000
3,"CCN(c1cc(Oc2cc(C#N)ccc2-c2ncc(CCN)cn2)n(C)n1)C(C)C [compound 842, 4-[5-(2-aminoethyl)pyrimidin-2-yl]-3-[5-[ethyl(propan-2-yl)amino]-2-methylpyrazol-3-yl]oxybenzonitrile]",< 10
4,"CC(C)c1cc(Oc2cc(F)ccc2-c2ccc(CCN)cn2)n(C)n1 [compound 1014, 2-[6-[4-fluoro-2-(2-methyl-5-propan-2-ylpyrazol-3-yl)oxyphenyl]pyridin-3-yl]ethanamine]",< 10
5,"C[C@@H](N)c1cnc(-c2ccc(C#N)cc2Oc2cc(-c3ccccn3)nn2C)nc1 [compound 808, 4-[5-[(1R)-1-aminoethyl]pyrimidin-2-yl]-3-(2-methyl-5-pyridin-2-ylpyrazol-3-yl)oxybenzonitrile]",< 10
6,"COC(CN)c1ccc(-c2ccc(C#N)cc2Oc2cc(N3CCOCC3)nc(C)n2)cc1 (stereo not shown) [Compound 11, 4-[4-(2-Amino-1-methoxyethyl)phenyl]-3-(2-methyl-6-morpholin-4-ylpyrimidin-4-yl)oxybenzonitrile]",< 10
7,"Cc1cc(Oc2cc(C#N)ccc2-c2ncc(CCN)cn2)cc(N2CC(F)C2)n1 [compound 503, 4-[5-(2-aminoethyl)pyrimidin-2-yl]-3-[2-(3-fluoroazetidin-1-yl)-6-methylpyridin-4-yl]oxybenzonitrile]",< 10
8,"Cc1cc(Oc2cc(C#N)ccc2-c2ncc(CCN)cn2)cc(N2CCO[C@H](C(F)F)C2)n1 [compound 439, 4-[5-(2-aminoethyl)pyrimidin-2-yl]-3-[2-[(2S)-2-(difluoromethyl)morpholin-4-yl]-6-methylpyridin-4-yl]oxybenzonitrile]",< 10
9,"Cc1nc(OCC(F)(F)F)cc(Oc2cc(C#N)ccc2-c2ccc(CCN)cc2)n1 [Compound 35, 4-[4-(2-aminoethyl)phenyl]-3-[2-methyl-6-(2,2,2-trifluoroethoxy)pyrimidin-4-yl]oxybenzonitrile]",10 to 1000
10,"Cc1nc(Oc2cc(C#N)ccc2-c2ccc(C3CCNC3)cc2)cc(N2CCOCC2)n1 (stereo not shown) [Compound 53, 3-(2-methyl-6-morpholin-4-ylpyrimidin-4-yl)oxy-4-(4-pyrrolidin-3-ylphenyl)benzonitrile]",10 to 1000
11,"Cc1nn(CC(C)C)cc1Cc1cc(C#N)ccc1-c1ncc(CCN)cn1 [compound 1199, 4-[5-(2-aminoethyl)pyrimidin-2-yl]-3-[[3-methyl-1-(2-methylpropyl)pyrazol-4-yl]methyl]benzonitrile]",< 10
12,"Cn1nc(C2CC2)cc1Oc1cc(C#N)ccc1-c1ccc(CN)cn1 [compound 327, 4-[5-(aminomethyl)pyridin-2-yl]-3-(5-cyclopropyl-2-methylpyrazol-3-yl)oxybenzonitrile]",< 10
13,"N#Cc1ccc(-c2ncc(CCN)cn2)c(Oc2nnc(N3CC(F)C3)s2)c1 [compound 722, 4-[5-(2-aminoethyl)pyrimidin-2-yl]-3-[[5-(3-fluoroazetidin-1-yl)-1,3,4-thiadiazol-2-yl]oxy]benzonitrile]",10 to 1000
14,"N#Cc1ccc(-n2cc(C(O)CN)cn2)c(Oc2cnnc(-c3ccccc3)c2)c1 (stereo not shown) [Compound 154, 4-[4-(2-amino-1-hydroxyethyl)pyrazol-1-yl]-3-(6-phenylpyridazin-4-yl)oxybenzonitrile]",10 to 1000
15,"N#Cc1ccc(-n2cc(CCN)cn2)c(Sc2cnnc(N3CCCCC3)c2)c1 [Compound No. 1246, 4-[4-(2-Aminoethyl)pyrazol-1-yl]-3-(6-piperidin-1-ylpyridazin-4-yl)sulfanylbenzonitrile]",10 to 1000
